Read-outs that look alike come from different tables or passages of the source.
Assays:
RyR1 [1] = target: T1, RyR1 (Oryctolagus cuniculus, UniProt P11716); settings: previous data; cited from earlier work
RyR1 [2] = target: T1, RyR1; experiment: Equilibrium [3H]Ry binding analysis on RyR1-enriched microsomal membranes; parameters: species or system New Zealand White rabbits; settings: for activity in enhancing [3H]Ry binding to RyR1: concentration-response, efficacy at 10 μM, Figure 3A, B; for RyR1 inhibitory potency compared with 6 / decrease of apparent activation potency relative to 6: Figure 3C table insert; for maximum efficacy relative to 6: higher maximum efficacy at 50 μM compared to that reached by 6 at 1 μM; for decrease of apparent activation potency relative to 6: less potent activator than 6
SERCA1a = SERCA1a (Oryctolagus cuniculus, UniProt P04191); experiment: biochemical; type: biochemical, New Zealand White rabbits; settings: for inhibition at 10 µM: read-out: SERCA1a inhibition; for activity toward SERCA1a: Figure 5G
[3] = test system: microsomal (JSR) membrane vesicles; experiment: Microsomal Ca2+ fluxes and Ca2+-induced Ca2+ release; type: biochemical, New Zealand White rabbits
[4] = test system: Platynereis dumerilii embryos; settings: cited from earlier work
[5] = test system: CHO (Chinese hamster ovary) cells; settings: cited from earlier work
[6] = at 2 μM, baseline = binding in presence of Veh alone, p < 0.05 vs Veh
[7] = 5 or 10 μM, initial 60 s release rate, vesicles loaded with 4 × 45 nmole Ca2+
[8] = expanded concentration range, Figure 3C

T1 sequence (P11716 whole entry): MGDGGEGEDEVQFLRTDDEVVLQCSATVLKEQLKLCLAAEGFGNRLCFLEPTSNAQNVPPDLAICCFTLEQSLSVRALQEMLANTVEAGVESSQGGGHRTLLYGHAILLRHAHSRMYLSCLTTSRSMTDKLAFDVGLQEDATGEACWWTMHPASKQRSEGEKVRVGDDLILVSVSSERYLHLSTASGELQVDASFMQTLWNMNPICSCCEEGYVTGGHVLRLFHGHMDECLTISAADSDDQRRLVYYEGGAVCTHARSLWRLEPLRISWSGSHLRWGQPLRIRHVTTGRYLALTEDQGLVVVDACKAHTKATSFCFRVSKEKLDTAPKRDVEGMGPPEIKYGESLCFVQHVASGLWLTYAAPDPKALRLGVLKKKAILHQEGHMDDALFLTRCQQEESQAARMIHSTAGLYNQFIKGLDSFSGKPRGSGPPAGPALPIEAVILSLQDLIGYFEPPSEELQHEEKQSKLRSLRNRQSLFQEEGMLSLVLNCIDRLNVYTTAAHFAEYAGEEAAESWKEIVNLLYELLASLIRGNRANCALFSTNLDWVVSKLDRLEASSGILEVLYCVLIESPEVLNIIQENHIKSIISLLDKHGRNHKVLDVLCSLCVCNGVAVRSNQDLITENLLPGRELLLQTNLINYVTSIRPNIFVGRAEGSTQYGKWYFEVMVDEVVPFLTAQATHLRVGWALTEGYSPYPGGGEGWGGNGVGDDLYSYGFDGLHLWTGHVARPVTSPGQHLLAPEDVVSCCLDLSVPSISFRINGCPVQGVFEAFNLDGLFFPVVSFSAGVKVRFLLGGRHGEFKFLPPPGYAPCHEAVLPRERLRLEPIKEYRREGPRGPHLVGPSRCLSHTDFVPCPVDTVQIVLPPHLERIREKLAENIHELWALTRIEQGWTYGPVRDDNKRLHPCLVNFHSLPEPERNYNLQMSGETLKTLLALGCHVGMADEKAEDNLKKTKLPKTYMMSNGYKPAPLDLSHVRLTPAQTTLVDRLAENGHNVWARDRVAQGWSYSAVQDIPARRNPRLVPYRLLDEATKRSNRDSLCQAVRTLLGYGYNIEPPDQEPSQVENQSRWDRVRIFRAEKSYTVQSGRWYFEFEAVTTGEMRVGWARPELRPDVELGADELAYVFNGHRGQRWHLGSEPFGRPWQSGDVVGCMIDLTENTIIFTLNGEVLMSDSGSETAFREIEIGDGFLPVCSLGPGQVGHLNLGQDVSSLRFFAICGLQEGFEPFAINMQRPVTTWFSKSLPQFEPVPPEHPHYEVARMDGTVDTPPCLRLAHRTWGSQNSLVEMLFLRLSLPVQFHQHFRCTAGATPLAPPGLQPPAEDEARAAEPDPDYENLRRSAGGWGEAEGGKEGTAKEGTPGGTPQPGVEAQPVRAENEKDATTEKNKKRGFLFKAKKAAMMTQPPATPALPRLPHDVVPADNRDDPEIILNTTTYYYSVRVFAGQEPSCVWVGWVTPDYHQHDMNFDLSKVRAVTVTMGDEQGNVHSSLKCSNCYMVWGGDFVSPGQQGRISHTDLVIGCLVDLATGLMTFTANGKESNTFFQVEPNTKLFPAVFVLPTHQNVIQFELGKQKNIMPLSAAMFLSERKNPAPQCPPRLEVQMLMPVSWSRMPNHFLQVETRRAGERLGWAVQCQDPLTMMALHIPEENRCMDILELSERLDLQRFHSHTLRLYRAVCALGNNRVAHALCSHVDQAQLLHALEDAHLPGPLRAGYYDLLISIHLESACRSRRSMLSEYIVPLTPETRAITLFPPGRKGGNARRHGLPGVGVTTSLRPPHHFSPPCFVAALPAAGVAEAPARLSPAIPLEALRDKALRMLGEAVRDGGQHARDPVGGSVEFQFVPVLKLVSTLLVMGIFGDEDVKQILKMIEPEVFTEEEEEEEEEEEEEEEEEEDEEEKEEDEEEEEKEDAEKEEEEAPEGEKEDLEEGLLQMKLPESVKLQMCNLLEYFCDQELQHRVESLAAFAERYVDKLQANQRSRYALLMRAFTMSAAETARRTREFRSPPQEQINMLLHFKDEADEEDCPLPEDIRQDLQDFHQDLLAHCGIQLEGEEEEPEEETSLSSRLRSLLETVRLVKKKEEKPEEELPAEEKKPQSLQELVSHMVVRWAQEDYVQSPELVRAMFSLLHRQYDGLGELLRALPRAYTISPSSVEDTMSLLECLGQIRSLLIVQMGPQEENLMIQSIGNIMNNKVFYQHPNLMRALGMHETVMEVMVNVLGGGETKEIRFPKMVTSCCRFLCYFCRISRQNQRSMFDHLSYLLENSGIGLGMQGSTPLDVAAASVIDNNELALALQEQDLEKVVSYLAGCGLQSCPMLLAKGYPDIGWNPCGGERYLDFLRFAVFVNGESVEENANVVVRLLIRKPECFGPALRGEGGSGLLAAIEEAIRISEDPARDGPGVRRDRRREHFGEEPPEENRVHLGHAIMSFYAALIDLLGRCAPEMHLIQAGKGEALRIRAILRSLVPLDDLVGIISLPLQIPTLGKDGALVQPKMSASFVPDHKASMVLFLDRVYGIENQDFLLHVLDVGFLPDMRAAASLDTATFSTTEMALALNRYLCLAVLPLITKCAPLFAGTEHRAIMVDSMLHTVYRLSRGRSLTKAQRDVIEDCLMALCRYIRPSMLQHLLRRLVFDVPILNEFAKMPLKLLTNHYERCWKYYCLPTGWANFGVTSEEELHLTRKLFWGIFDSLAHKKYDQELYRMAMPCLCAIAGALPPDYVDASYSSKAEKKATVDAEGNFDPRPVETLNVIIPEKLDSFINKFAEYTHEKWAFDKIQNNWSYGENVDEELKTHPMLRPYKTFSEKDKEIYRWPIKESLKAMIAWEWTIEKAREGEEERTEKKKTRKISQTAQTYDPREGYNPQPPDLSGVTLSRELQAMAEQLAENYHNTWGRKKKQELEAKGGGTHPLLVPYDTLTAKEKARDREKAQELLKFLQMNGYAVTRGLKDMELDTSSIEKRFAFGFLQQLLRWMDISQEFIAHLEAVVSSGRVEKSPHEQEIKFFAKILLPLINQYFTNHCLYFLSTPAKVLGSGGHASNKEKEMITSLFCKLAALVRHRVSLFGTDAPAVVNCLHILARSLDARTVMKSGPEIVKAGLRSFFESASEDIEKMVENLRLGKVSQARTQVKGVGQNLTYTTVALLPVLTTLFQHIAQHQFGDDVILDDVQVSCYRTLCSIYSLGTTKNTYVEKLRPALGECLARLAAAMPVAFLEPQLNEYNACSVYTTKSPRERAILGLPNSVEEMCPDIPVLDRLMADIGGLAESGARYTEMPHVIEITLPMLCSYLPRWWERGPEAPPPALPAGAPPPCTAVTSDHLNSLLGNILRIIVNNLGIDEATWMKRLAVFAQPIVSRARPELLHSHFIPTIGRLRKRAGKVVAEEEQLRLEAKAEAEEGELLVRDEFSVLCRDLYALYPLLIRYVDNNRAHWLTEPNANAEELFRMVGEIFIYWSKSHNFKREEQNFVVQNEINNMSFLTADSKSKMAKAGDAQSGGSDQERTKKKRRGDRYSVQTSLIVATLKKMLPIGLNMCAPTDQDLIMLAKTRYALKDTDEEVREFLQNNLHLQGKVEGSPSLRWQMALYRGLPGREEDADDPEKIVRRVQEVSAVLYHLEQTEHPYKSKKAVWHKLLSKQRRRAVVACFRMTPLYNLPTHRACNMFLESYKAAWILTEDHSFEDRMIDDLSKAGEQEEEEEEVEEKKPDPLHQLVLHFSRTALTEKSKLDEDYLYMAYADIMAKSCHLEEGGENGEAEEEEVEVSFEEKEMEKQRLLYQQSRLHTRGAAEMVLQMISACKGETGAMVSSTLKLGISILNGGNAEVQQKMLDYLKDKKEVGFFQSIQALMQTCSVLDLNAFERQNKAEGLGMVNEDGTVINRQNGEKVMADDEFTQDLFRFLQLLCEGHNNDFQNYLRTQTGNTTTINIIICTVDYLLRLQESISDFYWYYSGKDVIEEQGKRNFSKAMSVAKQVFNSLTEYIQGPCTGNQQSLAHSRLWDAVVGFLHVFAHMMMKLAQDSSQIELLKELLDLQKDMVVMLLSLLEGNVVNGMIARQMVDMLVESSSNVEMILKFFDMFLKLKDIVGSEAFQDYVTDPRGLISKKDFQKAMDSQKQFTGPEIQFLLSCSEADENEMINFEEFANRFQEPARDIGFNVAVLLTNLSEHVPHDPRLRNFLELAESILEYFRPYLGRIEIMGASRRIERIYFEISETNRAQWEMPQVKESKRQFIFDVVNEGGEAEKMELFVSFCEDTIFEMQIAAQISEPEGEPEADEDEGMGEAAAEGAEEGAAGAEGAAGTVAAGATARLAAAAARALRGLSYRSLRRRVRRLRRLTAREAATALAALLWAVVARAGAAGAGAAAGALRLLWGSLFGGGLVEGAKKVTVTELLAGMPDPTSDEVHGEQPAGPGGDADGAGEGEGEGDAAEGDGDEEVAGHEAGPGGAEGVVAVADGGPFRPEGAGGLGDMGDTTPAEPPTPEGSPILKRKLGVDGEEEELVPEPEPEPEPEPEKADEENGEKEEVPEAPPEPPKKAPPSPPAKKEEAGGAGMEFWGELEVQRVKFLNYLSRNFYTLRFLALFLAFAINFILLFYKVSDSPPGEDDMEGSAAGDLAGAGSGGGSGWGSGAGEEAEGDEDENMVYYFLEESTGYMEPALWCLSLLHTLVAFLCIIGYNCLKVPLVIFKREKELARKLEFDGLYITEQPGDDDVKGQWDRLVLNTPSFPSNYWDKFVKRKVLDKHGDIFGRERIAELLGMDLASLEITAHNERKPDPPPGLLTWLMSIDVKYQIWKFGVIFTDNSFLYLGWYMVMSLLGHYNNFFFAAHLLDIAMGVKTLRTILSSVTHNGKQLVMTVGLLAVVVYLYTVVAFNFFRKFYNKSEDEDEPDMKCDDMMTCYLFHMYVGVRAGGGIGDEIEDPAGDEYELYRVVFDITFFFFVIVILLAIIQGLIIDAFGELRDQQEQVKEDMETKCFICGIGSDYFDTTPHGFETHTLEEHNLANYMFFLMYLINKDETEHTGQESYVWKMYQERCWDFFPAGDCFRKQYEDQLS
T1 sequence (P62943 2-108 partner limits assumed): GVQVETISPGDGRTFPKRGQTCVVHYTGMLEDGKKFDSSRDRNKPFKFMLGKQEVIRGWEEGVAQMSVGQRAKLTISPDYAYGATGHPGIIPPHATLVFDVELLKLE

## Brc1ccc(Oc2cc(Br)ccc2Br)c(Br)c1 [BDE-49]
RyR1 [1]
  mode of action toward RyR1: monotonic

## Oc1cc(Br)c(Oc2ccc(Br)cc2Br)cc1Br [Compound 4-OH-BDE-49, 4′hydroxy-2,2′,4,5′-tetrabromodiphenyl ether]
RyR1 [1]
  mode of action toward RyR1: biphasic

## O=C1NC(=O)C(Br)=C1Br [Compound 6, 2,3-dibromomaleimide]
RyR1 [2]
  EC50: 0.36 µM
  IC50: 3 µM
  concentration at which RyR1 inhibitory phase was detected: < 5 µM
  concentration that maximally activated RyR1: 0.6−1.0 μM
  enhancement of [3H]Ry binding to RyR1 compared to baseline: ≥ 1.5 fold
  mode of modulation of RyR1: biphasic
SERCA1a
  SERCA1a inhibition: without inhibition of SERCA1a
  concentration at which SERCA1a inhibition was detected (only the highest tested): 10 µM
  inhibition at 10 µM: 50%
[3]
  Ca2+-induced Ca2+ release rate vs control: significantly higher rates of release than control
  net release of accumulated Ca2+ from loaded microsomal vesicles: failed to trigger net Ca^2+ efflux
  sensitizing influence on calcium-induced calcium release: did not reach statistical significance

## Clc1[nH]c2ccccc2c1Cl [Compound 13, 2,3-dichloroindole]
RyR1 [2]; [6]
  enhancement of [3H]Ry binding to RyR1 compared to baseline: ≥ 1.5 fold

## Brc1[nH]c2ccccc2c1Br [Compound 14, 2,3-dibromoindole]
RyR1 [2]; [6]
  enhancement of [3H]Ry binding to RyR1 compared to baseline: ≥ 1.5 fold
SERCA1a
  inhibition at 10 µM: 60%
[3]; [7]
  net release of accumulated Ca2+ from loaded microsomal vesicles: triggered dose-dependent Ca^2+ efflux

## Oc1c(Br)cc(Oc2c(Br)cc(Br)cc2Br)cc1Br [Compound 18, 4′-hydroxy-2,3′,4,5′,6-pentabromodiphenyl ether]
RyR1 [2]; [6]
  enhancement of [3H]Ry binding to RyR1 compared to baseline: ≥ 1.5 fold
SERCA1a; at 2.0 μM
  SERCA1a inhibition: > 80%
SERCA1a; at 10 μM
  SERCA1a inhibition: ~ 90%
[3]; [7]
  net release of accumulated Ca2+ from loaded microsomal vesicles: triggered dose-dependent Ca^2+ efflux

## c1cc[nH]c1 [Compound 24, pyrrole]
RyR1 [2]
  activity in enhancing [3H]Ry binding to RyR1: inactive
SERCA1a
  activity toward SERCA1a: inactive

## Brc1c[nH]c(Br)c1Br [Compound 26, 2,3,4-tribromopyrrole]
RyR1 [2]
  activity in enhancing [3H]Ry binding to RyR1: inactive
SERCA1a
  activity toward SERCA1a: inactive
[3]; [7]
  net release of accumulated Ca2+ from loaded microsomal vesicles: failed to trigger net release

## CCOC(=O)c1cc(Br)c[nH]1 [Compound 27, ethyl-4-bromopyrrole-2-carboxylate]
RyR1 [2]
  activity in enhancing [3H]Ry binding to RyR1: inactive
SERCA1a
  activity toward SERCA1a: inactive
[3]; [7]
  net release of accumulated Ca2+ from loaded microsomal vesicles: failed to trigger net release

## CN1C(=O)C(Br)=C(Br)C1=O [Compound 28, 2,3-dibromo-N-methylmaleimide]
RyR1 [2]; [6]
  enhancement of [3H]Ry binding to RyR1 compared to baseline: ≥ 1.5 fold
RyR1 [2]; [8]
  mode of modulation of RyR1: biphasic

## Brc1[nH]c(Br)c(Br)c1Br [Compound 31, tetrabromopyrrole]
RyR1 [2]
  RyR1 inhibitory potency compared with 6: weaker inhibitors than 6
  maximum efficacy relative to 6: 2.5 fold
  decrease of apparent activation potency relative to 6: 68 fold
RyR1 [2]; [6]
  enhancement of [3H]Ry binding to RyR1 compared to baseline: ≥ 1.5 fold
RyR1 [2]; [8]
  mode of modulation of RyR1: biphasic
SERCA1a; at 10 μM
  SERCA1a inhibition: 80%
[3]; [7]
  net release of accumulated Ca2+ from loaded microsomal vesicles: triggered dose-dependent Ca^2+ efflux
[4]
  developmental toxicity: potent developmental toxicity

## Brc1cc(Br)c(Br)[nH]1 [Compound 34, 2,3,5-tribromopyrrole]
RyR1 [2]
  RyR1 inhibitory potency compared with 6: weaker inhibitors than 6
  maximum efficacy relative to 6: 2.5 fold
  decrease of apparent activation potency relative to 6: 107 fold
RyR1 [2]; [6]
  enhancement of [3H]Ry binding to RyR1 compared to baseline: ≥ 1.5 fold
RyR1 [2]; [8]
  mode of modulation of RyR1: biphasic
SERCA1a
  inhibition at 10 µM: 48%
[3]; [7]
  net release of accumulated Ca2+ from loaded microsomal vesicles: triggered dose-dependent Ca^2+ efflux
[5]
  cytotoxicity: cytotoxic
  genotoxicity: genotoxic

## Hexabromobipyrroles [Compound 25]
RyR1 [2]; [6]
  enhancement of [3H]Ry binding to RyR1 compared to baseline: ≥ 1.5 fold
SERCA1a; at 2.0 μM
  SERCA1a inhibition: > 80%
SERCA1a; at 10 μM
  SERCA1a inhibition: ~ 90%
[3]; [7]
  net release of accumulated Ca2+ from loaded microsomal vesicles: triggered dose-dependent Ca^2+ efflux
[3]; concentration-dependent, Figure SI3
  loading capacity of calcium into microsomal vesicles: diminished the loading capacity
